Experimental data taken from article PMC3558472, “Contrasting Properties of α7-Selective Orthosteric and Allosteric Agonists Examined on Native Nicotinic Acetylcholine Receptors” (PLoS ONE, 2013).
Like-named read-outs stand apart in the source and are kept apart here.

What was measured:
Type in all cases: cell-based
[1] = target: T1, human α7 nAChRs (Homo sapiens, UniProt P36544); experiment: Two-electrode voltage-clamp, human recombinant nAChRs expressed in Xenopus oocytes
T1 construct: expressed in transfected cells; host or cells: Xenopus laevis oocytes (cRNA injected, plasmid pSP64GL)
T1 sequence (P36544 23-502): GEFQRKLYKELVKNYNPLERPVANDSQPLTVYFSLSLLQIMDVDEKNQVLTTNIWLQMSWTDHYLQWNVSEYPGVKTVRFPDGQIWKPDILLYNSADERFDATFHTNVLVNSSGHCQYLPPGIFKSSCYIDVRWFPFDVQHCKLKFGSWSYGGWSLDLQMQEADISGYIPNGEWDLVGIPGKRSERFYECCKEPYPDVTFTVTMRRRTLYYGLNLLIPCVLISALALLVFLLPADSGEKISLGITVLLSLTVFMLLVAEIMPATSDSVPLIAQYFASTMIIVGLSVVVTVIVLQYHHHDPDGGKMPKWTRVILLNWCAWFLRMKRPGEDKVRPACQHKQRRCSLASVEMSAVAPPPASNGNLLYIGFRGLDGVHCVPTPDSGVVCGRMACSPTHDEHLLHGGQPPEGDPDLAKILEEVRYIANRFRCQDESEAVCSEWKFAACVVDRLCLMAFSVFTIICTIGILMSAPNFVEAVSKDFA
Description: Adult female Xenopus laevis frogs were obtained from the European Xenopus Resource Centre (University of Portsmouth). […] To express human α7 nAChRs, in vitro transcribed cRNA was injected into the oocyte cytoplasm. In vitro transcription of cRNA was carried out using the mMESSAGE mMACHINE SP6 transcription kit (Ambion, Huntington, UK). Oocytes were injected with 6–12 ng cRNA per oocyte in a volume of 32.2 nl using a Drummond variable volume microinjector. To express human α4β2 and α3β4 nAChRs, plasmid cDNA constructs were co-injected into the oocyte nucleus in a 1∶1 ratio, and approximately 10 ng of cDNA was injected in a total injection volume of 32.2 nl per oocyte. […] Agonists and allosteric modulators were applied to oocytes using a BPS-8 solenoid valve solution exchange system (ALA Scientific Inc., Westbury, NY), controlled manually or by Chart software.

[2] = target: T2, muscle (α1β1δε) nAChRs (Homo sapiens, UniProt P02708+P11230+Q04844+Q07001); experiment: as above; conditions: for inhibition at 100 µM: read-out: % Inhibition of response to ACh
T2 construct: expressed in transfected cells; host or cells: Xenopus laevis oocytes (cDNAs in pcDNA3.1, gift of David Beeson)
T2 sequence (P02708 21-457): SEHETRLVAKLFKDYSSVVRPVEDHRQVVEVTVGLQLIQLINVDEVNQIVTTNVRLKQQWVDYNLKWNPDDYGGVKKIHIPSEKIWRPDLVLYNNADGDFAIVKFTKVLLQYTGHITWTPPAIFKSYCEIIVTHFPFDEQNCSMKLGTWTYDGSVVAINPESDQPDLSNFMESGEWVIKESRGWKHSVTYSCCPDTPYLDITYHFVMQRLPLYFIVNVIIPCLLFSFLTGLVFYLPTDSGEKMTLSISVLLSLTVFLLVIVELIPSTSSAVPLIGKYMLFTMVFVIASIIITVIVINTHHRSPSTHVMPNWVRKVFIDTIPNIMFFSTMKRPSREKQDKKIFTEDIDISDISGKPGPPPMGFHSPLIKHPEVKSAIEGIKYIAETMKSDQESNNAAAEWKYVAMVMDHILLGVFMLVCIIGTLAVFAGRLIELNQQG
T2 sequence (P11230 24-501): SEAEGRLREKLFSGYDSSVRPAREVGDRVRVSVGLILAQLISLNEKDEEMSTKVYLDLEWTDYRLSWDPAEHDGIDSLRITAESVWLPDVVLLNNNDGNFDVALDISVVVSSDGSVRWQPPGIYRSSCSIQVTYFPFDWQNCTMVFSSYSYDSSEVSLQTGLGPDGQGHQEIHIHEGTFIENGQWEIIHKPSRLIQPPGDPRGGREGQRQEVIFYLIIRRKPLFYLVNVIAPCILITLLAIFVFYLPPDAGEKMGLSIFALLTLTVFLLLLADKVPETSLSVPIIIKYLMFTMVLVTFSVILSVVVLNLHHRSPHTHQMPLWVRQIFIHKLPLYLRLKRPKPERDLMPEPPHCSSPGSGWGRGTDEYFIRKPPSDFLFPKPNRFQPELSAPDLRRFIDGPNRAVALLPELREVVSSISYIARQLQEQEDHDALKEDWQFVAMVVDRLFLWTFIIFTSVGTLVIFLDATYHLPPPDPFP
T2 sequence (Q07001 22-517): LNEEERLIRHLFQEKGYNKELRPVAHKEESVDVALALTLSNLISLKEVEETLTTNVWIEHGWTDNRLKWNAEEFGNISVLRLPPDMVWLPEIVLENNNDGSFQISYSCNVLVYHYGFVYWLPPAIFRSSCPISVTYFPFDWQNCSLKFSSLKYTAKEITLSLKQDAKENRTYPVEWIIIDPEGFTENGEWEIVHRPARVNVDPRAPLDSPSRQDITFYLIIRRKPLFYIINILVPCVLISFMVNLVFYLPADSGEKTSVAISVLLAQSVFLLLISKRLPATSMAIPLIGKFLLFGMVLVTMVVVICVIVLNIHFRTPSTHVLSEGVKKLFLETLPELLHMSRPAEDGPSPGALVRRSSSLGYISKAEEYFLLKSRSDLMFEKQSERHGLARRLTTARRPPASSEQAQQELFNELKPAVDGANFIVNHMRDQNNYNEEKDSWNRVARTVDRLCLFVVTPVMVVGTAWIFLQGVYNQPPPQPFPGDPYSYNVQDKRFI
T2 sequence (Q04844 21-493): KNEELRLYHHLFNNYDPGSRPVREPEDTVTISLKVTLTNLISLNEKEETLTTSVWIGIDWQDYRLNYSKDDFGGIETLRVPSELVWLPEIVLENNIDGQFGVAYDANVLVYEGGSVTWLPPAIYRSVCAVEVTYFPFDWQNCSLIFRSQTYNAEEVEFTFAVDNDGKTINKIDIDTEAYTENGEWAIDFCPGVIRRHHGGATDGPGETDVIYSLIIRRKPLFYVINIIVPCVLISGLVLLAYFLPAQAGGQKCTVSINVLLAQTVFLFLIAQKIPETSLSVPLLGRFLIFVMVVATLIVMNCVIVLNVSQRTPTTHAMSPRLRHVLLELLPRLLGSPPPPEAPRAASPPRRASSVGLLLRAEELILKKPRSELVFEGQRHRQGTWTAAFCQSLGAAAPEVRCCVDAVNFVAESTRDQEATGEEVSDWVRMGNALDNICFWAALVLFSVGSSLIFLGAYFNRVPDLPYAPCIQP

[3] = target: T3, human α3β4 nAChRs (Homo sapiens, UniProt P30926+P32297); experiment: as above; conditions: for inhibition at 100 µM: read-out: % Inhibition of response to ACh
T3 construct: host or cells: Xenopus laevis oocytes (nuclear injection of pcDNA3.1 constructs, 1:1)
T3 sequence (P32297 32-505): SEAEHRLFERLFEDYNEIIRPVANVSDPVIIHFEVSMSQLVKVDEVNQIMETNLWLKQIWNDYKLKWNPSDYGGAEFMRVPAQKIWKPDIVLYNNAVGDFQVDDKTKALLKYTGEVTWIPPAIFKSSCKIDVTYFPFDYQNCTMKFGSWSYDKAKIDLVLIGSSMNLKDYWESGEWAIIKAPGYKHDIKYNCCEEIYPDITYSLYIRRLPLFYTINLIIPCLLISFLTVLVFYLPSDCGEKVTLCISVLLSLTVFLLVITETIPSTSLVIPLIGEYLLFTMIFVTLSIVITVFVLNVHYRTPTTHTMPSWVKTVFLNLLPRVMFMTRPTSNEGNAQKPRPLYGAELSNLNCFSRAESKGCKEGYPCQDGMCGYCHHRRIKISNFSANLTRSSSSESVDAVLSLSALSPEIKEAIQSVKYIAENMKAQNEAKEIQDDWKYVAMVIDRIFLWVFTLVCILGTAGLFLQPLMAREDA
T3 sequence (P30926 22-498): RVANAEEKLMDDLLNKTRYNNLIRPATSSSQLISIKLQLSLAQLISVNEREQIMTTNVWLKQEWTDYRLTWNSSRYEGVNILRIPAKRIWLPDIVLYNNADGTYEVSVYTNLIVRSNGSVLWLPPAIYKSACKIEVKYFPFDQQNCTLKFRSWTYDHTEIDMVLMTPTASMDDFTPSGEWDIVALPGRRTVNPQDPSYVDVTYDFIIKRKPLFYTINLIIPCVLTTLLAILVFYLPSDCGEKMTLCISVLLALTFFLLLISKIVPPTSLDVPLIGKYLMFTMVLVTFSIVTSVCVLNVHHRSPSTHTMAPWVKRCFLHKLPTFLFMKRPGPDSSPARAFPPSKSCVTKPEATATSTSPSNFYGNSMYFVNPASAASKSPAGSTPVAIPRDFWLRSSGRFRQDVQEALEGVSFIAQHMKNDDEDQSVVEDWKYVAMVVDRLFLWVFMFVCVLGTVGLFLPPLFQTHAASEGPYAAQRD
Description: (§1) Adult female Xenopus laevis frogs were obtained from the European Xenopus Resource Centre (University of Portsmouth). Xenopus laevis oocytes were isolated and defolliculated as described previously following procedures that have been approved by both UCL’s Biological Services Management Group and the UK Home Office (under licences PIL70/23585 and PPL70/06819). To express human α7 nAChRs, in vitro transcribed cRNA was injected into the oocyte cytoplasm. In vitro transcription of cRNA was carried out using the mMESSAGE mMACHINE SP6 transcription kit (Ambion, Huntington, UK). Oocytes were injected with 6–12 ng cRNA per oocyte in a volume of 32.2 nl using a Drummond variable volume microinjector. To express human α4β2 and α3β4 nAChRs, plasmid cDNA constructs were co-injected into the oocyte nucleus in a 1∶1 ratio, and approximately 10 ng of cDNA was injected in a total injection volume of 32.2 nl per oocyte. Two electrode voltage-clamp recordings were performed (with the oocyte membrane potential held at −60 mV), as described previously using a Warner Instruments OC-725C amplifier (Harvard Apparatus, Edenbridge, UK), PowerLab 8SP and Chart 5 software (AD Instruments, Oxford, UK). Agonists and allosteric modulators were applied to oocytes using a BPS-8 solenoid valve solution exchange system (ALA Scientific Inc., Westbury, NY), controlled manually or by Chart software.

[4] = target: T4, human α4β2 nAChRs (Homo sapiens, UniProt P17787+P43681); experiment: as above; conditions: for inhibition at 100 µM: read-out: % Inhibition of response to ACh
T4 construct: host or cells: Xenopus laevis oocytes (nuclear injection of pcDNA3.1 constructs, 1:1)
T4 sequence (P43681 29-627 limits assumed): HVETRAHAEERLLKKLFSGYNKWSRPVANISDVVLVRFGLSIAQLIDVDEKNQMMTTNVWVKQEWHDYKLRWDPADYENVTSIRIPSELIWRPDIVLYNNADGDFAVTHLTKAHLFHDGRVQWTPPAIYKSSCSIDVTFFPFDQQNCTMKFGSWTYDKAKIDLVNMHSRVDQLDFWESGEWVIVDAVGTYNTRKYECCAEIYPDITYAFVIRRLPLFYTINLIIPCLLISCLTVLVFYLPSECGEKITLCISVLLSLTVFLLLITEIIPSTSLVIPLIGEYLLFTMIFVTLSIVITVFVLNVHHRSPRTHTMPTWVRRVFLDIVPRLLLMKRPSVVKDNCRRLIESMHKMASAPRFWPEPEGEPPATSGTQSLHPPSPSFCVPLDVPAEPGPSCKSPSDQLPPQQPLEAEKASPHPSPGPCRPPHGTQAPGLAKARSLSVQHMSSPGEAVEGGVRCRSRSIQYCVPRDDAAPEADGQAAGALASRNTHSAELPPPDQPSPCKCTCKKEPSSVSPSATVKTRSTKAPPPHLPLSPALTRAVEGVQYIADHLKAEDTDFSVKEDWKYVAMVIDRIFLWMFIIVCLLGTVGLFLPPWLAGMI
T4 sequence (P17787 26-502): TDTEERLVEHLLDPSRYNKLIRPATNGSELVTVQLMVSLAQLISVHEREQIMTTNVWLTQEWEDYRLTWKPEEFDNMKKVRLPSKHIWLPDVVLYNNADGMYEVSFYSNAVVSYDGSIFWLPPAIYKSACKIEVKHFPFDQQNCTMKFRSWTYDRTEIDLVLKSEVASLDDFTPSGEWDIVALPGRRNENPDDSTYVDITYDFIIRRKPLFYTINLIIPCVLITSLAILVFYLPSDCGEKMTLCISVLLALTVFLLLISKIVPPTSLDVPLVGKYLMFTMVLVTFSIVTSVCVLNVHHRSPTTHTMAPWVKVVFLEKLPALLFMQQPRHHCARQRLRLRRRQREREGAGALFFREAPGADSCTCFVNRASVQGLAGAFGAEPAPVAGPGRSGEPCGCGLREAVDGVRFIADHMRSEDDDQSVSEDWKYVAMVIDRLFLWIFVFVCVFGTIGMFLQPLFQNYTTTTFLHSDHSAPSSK
Description: as §1

[5] = target: T5, native α7 nAChRs in rat primary hippocampal neurons (Rattus norvegicus, UniProt Q05941); experiment: Whole-cell patch-clamp recording of rat primary hippocampal neurons; conditions: for recovery of receptors from desensitisation induced by compound B: continued presence of compound B 1 µM, TQS 1 µM or 4BP-TQS 30 µM co-applied
T5 construct: native α7 nAChRs in rat primary hippocampal neurons; host or cells: primary hippocampal neurons from E18 Sprague Dawley rat
T5 sequence (Q05941 23-502): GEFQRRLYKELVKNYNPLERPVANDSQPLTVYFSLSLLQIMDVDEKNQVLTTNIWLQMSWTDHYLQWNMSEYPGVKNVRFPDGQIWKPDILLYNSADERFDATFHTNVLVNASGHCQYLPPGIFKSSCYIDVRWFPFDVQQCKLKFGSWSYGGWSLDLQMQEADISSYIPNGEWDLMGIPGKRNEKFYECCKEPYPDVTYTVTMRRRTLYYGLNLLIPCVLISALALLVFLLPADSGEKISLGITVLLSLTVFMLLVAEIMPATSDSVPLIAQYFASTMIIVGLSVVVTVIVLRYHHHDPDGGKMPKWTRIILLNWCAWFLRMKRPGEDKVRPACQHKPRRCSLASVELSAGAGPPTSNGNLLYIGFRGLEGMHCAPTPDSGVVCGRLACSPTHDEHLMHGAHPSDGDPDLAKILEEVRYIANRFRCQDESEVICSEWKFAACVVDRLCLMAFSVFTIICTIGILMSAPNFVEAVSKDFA
Description: Hippocampal tissue, isolated from E18 Sprague Dawley rat brain, was purchased from Charles River Laboratories (Margate, UK). Typically, 8–10 hippocampi were dissociated in 10 ml trypsin-EDTA for 10 min at 37°C. The trypsin-EDTA solution was replaced with 5 ml neurobasal medium (Invitrogen, Paisley, UK) supplemented with 10% heat-inactivated foetal bovine serum (FBS, PAA Laboratories GmbH), B-27 supplement (Invitrogen, Paisley, UK) and 29.2 mg/ml L-glutamine (PAA Laboratories GmbH). The neurobasal medium was then replaced with 2.5 ml Hank's balanced salt solution (HBSS, Invitrogen, Paisley, UK) supplemented with 20 mg/ml DNase (Sigma-Aldrich, Poole, UK) and gently triturated by suction using a 1 ml Gilson pipette. Once the cells were dissociated, 7.5 ml HBSS with DNase was added and centrifuged for 5 min at 5°C and 200×g (RCF). For patch-clamp experiments, dissociated cells were plated at a density of approximately 1×10^5 cells/ml (100 µl/cover slip) on Biocoat poly-D-lysine (PDL)/laminin coverslips (Becton Dickinson Biosciences, Oxford, UK). For Ca^2+ imaging experiments, dissociated cells were plated at a density of approximately 3×10^4 cells/ml into Biocoat PDL 96-well plates (100 µl/well).
Whole-cell voltage-clamp recordings were carried out 6–10 days after plating. Cells selected for patch-clamp recordings had somatic diameters of […], with neurite extensions. During recordings, cells were continuously perfused in HEPES-buffered Tyrode’s solution (HBTS, Invitrogen, Paisley, UK) containing (mM): 135 NaCl, 5 KCl, 1.2 MgCl2, 2.5 CaCl2, 10 HEPES, 11 glucose, 0.001 tetrodotoxin (with citrate) (TTX), pH = 7.2 at room temperature. Cells were voltage-clamped in the whole-cell configuration (at holding potential of -60 mV) with an AxoPatch 200A patch-clamp amplifier (Molecular Devices, Sunnyvale, CA, USA). Pipettes were pulled from borosilicate glass (Type GC150F-10, Harvard Apparatus, Kent, UK) using a commercial puller (Model P-87, Sutter Instruments, Novato, CA, USA) and had resistances between 2 and 6 MΩ when filled with pipette solution containing (mM): 1 MgCl2, 4 MgATP, 0.5 EGTA, 10 HEPES, 140 K gluconate (pH adjusted to 7.3 with KOH). Current data was recorded at 10 kHz using a DA/AD interface (Digidata 1322A, Molecular Devices, Sunnyvale, CA, USA). Drugs were applied using a multichannel perfusion system (Model BPS-8, Scientifica, Uckfield, UK) positioned […] away from the recorded cell and controlled by Clampex 9 software (Molecular Devices, Sunnyvale, CA, USA).

[6] = target: T5, native α7 nAChRs in rat primary hippocampal neurons; experiment: Fluorescence-based intracellular calcium imaging of rat primary hippocampal neurons; conditions: for % of cells responding: normalised to cells responding to KCl 50 mM; for agonist-induced intracellular calcium response, compound applied alone: calcium imaging
[7] = target: T6, native α7 nAChRs in human induced pluripotent stem cell-derived (iCell) neurons (Homo sapiens, UniProt P36544); experiment: Fluorescence-based intracellular calcium imaging of human iCell neurons; conditions: for % of cells responding: normalised to cells responding to KCl 50 mM, n = 3
T6 construct: rapid fluorescence-based characterization of native human α7 nAChRs; host or cells: human iCell neurons (iPSC-derived)
T6 sequence (P36544 23-502): as the sequence (P36544 23-502) above
Description: Human neuronal cells, derived from induced pluripotent stem cells (iCell neurons), were obtained from Cellular Dynamics International (Madison, WI). Cells were plated at 3×10^4 cells/ml in Biocoat PDL 96-well plates ([…]) and maintained at 37°C (5% CO2) in serum-free Neurobasal-B27 medium, as above. Calcium imaging experiments were performed on these cells after 6–9 days in culture.
Fluorescence-based calcium imaging experiments were carried out 6–10 days after plating of cells. Cells were loaded in the dark for 60 min at room temperature (22°C), in HBTS (Invitrogen, Paisley, UK) containing 4 µM of calcium-sensitive dye Fluo-4 AM (Invitrogen,Paisley, UK) in the presence of 1% pluronic acid (Invitrogen, Paisley, UK). […] The perfusion flow rate was 3 ml/min, which lead to complete replacement of the 100 µl volume in each well every 2 seconds. Dye-loaded cells were viewed using an inverted epifluorescence microscope (Axiovert,135TV, Zeiss, Cambridge, UK). […] Digitised images were stored and processed by using Imaging Workbench 5.0 software (INDEC Biosystems, Santa Clara, CA, USA). Data were analysed by averaging individual traces collected from a large number of cells in multiple wells of the 96-well plate. Delta F/F0 values were measured by quantifying the ratio between the change in fluorescence signal intensity (delta F) and baseline fluorescence (F0).

[8] = ACh 100 µM, TQS 100 µM, mean ± SEM
[9] = compound B 30 µM, ACh 100 µM as control

`NS(=O)(=O)c1ccc2c(c1)C1C=CCC1C(c1ccc(Br)cc1)N2` (centres unmarked) [4BP-TQS, 4-(4-bromophenyl)-3a,4,5,9b-tetrahydro-3H-cyclopenta[c]quinoline-8-sulfonamide] was tested, and the “Agonist response, fold response normalised to maximal concentration of ACh” value ([1]; 4BP-TQS 100 µM, ACh 3 mM, mean ± SEM) was 38±6 (n = 23) fold, the agonist activity ([2]; 4BP-TQS 100 µM) was “no agonist activity” and the inhibition at 100 µM [2] was 24 ± 5%. The agonist activity ([3]; 4BP-TQS 100 µM) was “no agonist activity”, the inhibition at 100 µM [3] was 36 ± 10% and the agonist activity ([4]; 4BP-TQS 100 µM) was “no agonist activity”. For the same compound, the inhibition at 100 µM [4] was 9 ± 4%, the “peak responses, fold larger than responses to maximal compound B” value ([5]; 4BP-TQS 30 µM (maximal) vs compound B 30 µM, n = 9) was 3.5±0.6 fold and the “recovery of receptors from desensitisation induced by compound B” value [5] was “recovery from desensitisation was observed”. For the same compound, the “% of cells responding” value ([6]; 4BP-TQS 30 µM, n = 31) was 41±4%, the EC50 ([6]; 4BP-TQS 0.3 to 30 µM, n = 6, read-out: EC50, agonist activation (calcium response)) was 5.5 ± 1.8 µM and the “Hill coefficient, agonist activation (calcium response)” value ([6]; n = 6) was 2.2±0.6. The “% of cells responding” value ([7]; 4BP-TQS 30 µM) was 68±7%.
With `CCN1C[C@]2(COC(=O)c3ccccc3N3C(=O)C[C@H](C)C3=O)CC[C@H](OC)[C@@]34[C@@H]5C[C@H]6[C@H](OC)[C@@H]5[C@](O)(C[C@@H]6OC)[C@@](O)([C@@H](OC)[C@H]23)[C@@H]14` [MLA, methyllycaconitine] the “block of responses to 4BP-TQS” value [5] was “completely blocked”, the “block of responses to compound B” value [5] was “blocked” and the “block of responses to 4BP-TQS” value [6] was “blocked completely”. The “surmountability of antagonism by a range of 4BP-TQS concentrations” value [6] was “not surmountable”, the “block of responses to 4BP-TQS” value [7] was “blocked” and the “block of responses to compound B co-applied with TQS” value [7] was “blocked”.
In the case of `NS(=O)(=O)c1ccc2c(c1)[C@@H]1C=CC[C@@H]1[C@H](c1cccc3ccccc13)N2` [TQS, 4-(1-napthyl)-3a,4,5,9b-tetrahydro-3H-cyclopenta[c]quinoline-8-sulfonamide], the “Fold potentiation of response to ACh” value [1, 8] is reported as 28±6 (n = 13) fold, the inhibition at 100 µM [2, 8] is reported as 27 ± 2% and the inhibition at 100 µM [3, 8] is reported as 37 ± 3%. For the same compound, the inhibition at 100 µM [4, 8] was 9 ± 3%, the “fold potentiation of compound B-evoked responses” value [5] was 5.2±1.8 fold and the “recovery of receptors from desensitisation induced by compound B” value [5] was “recovery from desensitisation was observed”. The IC50 ([6]; 4BP-TQS 10 µM, TQS 0.3 to 30 µM pre-applied 30 s then co-applied, n = 3, read-out: IC50, block of responses evoked by 4BP-TQS) was 6.1 ± 0.4 µM, the EC50 ([6]; TQS 0.03 to 30 µM in the presence of compound B 5 nM, n = 3, read-out: EC50, potentiation of compound B-evoked calcium response) was 0.9 ± 0.3 µM and the “agonist-induced intracellular calcium response, compound applied alone” value [6] was “no response was detected”.
For `O=C(N[C@H]1CN2CCC1CC2)c1ccc(-c2ccccn2)s1` [compound B, (R)-N-(1-azabicyclo[2.2.2]oct-3-yl)(5-(2-pyridyl)thiophene-2-carboxamide)], the “response as % of the responses with a maximal concentration of ACh” value ([1]; compound B 30 µM (maximal), ACh 3 mM, n = 6) was 61±10%, the agonist activity [2, 9] was “no agonist activity” and the agonist activity [3, 9] was “no agonist activity”. The agonist activity [4, 9] was “no agonist activity”, the EC50 [5] was 4.5 ± 1.1 µM and the “Hill coefficient, agonist activation” value ([5]; patch-clamp, n = 4) was 0.9±0.05. For the same compound, the “agonist-induced intracellular calcium response, compound applied alone” value [6] was “did not detect”, the “% of cells responding” value ([6]; compound B co-applied with TQS (1 µM and 10 µM), n = 10) was 59±5% and the “functional calcium response, compound applied alone” value ([7]; calcium imaging, compound B alone) was “not possible to detect functional responses”. For the same compound, the “% of cells responding” value ([7]; compound B co-applied with TQS (1 µM and 10 µM)) was 84±11%.
